ChEMBL document CHEMBL1126484, “Backbone modified formyl-methionyl tripeptide chemoattractants” (1993)
pEC50: −log10 of the molar value. Where a SMILES comes first, the peptide text is derived from it.

Key:
Format in all cases: functional
Oryctolagus cuniculus [1] = species on record: Oryctolagus cuniculus; assay: Effective dose to induce the secretion of beta-glucosaminidase from cytochalasin beta-treated rabbit peritoneal polymorphonuclear leukocytes (neutrophils); details: read-out: ED50 (the source's name)
Oryctolagus cuniculus [2] = species on record: Oryctolagus cuniculus; assay: Maximum percentage induction of the secretion of beta-glucosaminidase from cytochalasin beta-treated rabbit peritoneal polymorphonuclear leukocytes (neutrophils)
Oryctolagus cuniculus [3] = species on record: Oryctolagus cuniculus; assay: Relative potency with respect to HCO-L-Met-L-Leu-L-Phe-OMe (1) was determined

Row | SMILES | pEC50 (Oryctolagus cuniculus [1]) | Max (Oryctolagus cuniculus [2]) [%] | Relative potency (Oryctolagus cuniculus [3])
1 | COC(=O)[C@H](Cc1ccccc1)NC(=O)[C@@](C)(NC(=O)[C@H](CCSC)NC=O)C(C)C | 10.57 | 32 | 2.5
2 | CC[C@](C)(NC(=O)[C@H](CCSC)NC=O)C(=O)N[C@@H](Cc1ccccc1)C(=O)OC | 9.77 | 32 | 0.4
3 | COC(=O)[C@H](Cc1ccccc1)NC(=O)[C@H](CC(C)C)NC(=O)[C@H](CCSC)NC=O | 10.17 | 42 | –
4 | COC(=O)[C@H](Cc1ccccc1)NC(=O)[C@@H](CC(C)C)NC(=O)[C@H](CCSC)NC=O | 7.44 | 38 | 0.0019
5 | COC(=O)[C@H](Cc1ccccc1)NC(=O)[C@@](C)(CC(C)C)NC(=O)[C@H](CCSC)NC=O | 10.28 | 42 | 1.3
6 | COC(=O)[C@H](Cc1ccccc1)NC(=O)[C@](C)(NC(=O)[C@H](CCSC)NC=O)C(C)C | 9.96 | 38 | 0.62
7 | CC[C@@](C)(NC(=O)[C@H](CCSC)NC=O)C(=O)N[C@@H](Cc1ccccc1)C(=O)OC | 9.32 | 42 | 0.14
8 | CSCC[C@H](NC=O)C(=O)N[C@@H](CC(C)C)C(=O)N[C@@H](Cc1ccccc1)C(=O)O | 9.89 | 37 | 0.52
9 | COC(=O)[C@H](Cc1ccccc1)NC(=O)[C@](C)(CC(C)C)NC(=O)[C@H](CCSC)NC=O | 10.57 | 42 | 2.5
10 | COC(=O)[C@H](Cc1ccccc1)NC(=O)C(C)(C)NC(=O)[C@H](CCSC)NC=O (HELM PEPTIDE1{[O=C[*:2]].M.[Aib].F.[CO[*:1]]}$$$$V2.0) | 8.85 | 39 | 0.049
